Results taken from PubChem BioAssay (NCI).
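A five-concentration, 48-hour dose response in 96-well plates underlies each endpoint, interpolated linearly between surrounding concentrations. At the GI50, growth is halved. The concentration for full growth arrest is given as TGI.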

Columns and labels:
Assay in all cases: inhibition of tumour cell growth, NCI panel, 48 h
[1] = system: COLO 205 colon
[2] = system: HOP-62 NSCLC
[3] = system: K-562 leukemia
[4] = system: LOX IMVI melanoma
[5] = system: MALME-3M melanoma
[6] = system: OVCAR-4 ovarian
[7] = system: RXF 393 renal
[8] = system: SN12C renal
[9] = system: UO-31 renal
[10] = system: SF-268 CNS

Compound	TGI [1]	TGI [2]	TGI [3]	TGI [4]	TGI [5]	TGI [6]	TGI [7]	TGI [8]	TGI [9]	TGI [10]	GI50 [1]	GI50 [2]	GI50 [4]	GI50 [5]	GI50 [6]	GI50 [7]	GI50 [10]	GI50 [8]	GI50 [9]	GI50 [3]
CN(C)CCNC(=O)c1cccc2nc3c(Cl)cccc3nc12	> 37.3 µM	26.3 µM	8.74 µM	10.7 µM	8.05 µM	27.6 µM	16.6 µM	49.5 µM	> 40.5 µM											
COc1ccc(/C=C(/C(=O)O)c2cc(OC)c(OC)c(OC)c2)cc1	> 100 µM	> 100 µM	> 100 µM		> 100 µM	> 100 µM		> 100 µM	> 100 µM	> 100 µM										
CCOC(=O)c1c(N)n(-c2ccccc2)c(=S)n(-c2ccccc2)c1=O	> 100 µM		> 100 µM	> 100 µM	> 100 µM	> 100 µM	> 100 µM	> 100 µM	> 100 µM	> 100 µM										
CC(=O)c1ccc(N(/C=C/C(=O)C(F)(F)F)CC(=O)c2ccc(Cl)c(Cl)c2)cc1	65 µM	28.7 µM		26.8 µM	25 µM	33.4 µM	30.4 µM	28.8 µM	30.5 µM	31.5 µM	22.6 µM	15.3 µM	12.4 µM	11.7 µM	14 µM	13.9 µM	14.2 µM	15 µM	16.5 µM	
C[C@]12CCC(=O)C=C1CC[C@@H]1C2CC[C@]2(C)NC(=O)C(C#N)CC12 (stereo partly drawn)		> 100 µM	> 100 µM		> 100 µM	> 100 µM	> 100 µM		> 100 µM											
COc1ccc(N=Cc2cc(OC)c(OC)c(OC)c2)cc1		> 100 µM	> 100 µM	> 100 µM	> 100 µM	> 100 µM	> 100 µM	> 100 µM	> 100 µM	> 100 µM										
COC(=O)[C@@H](C)C[C@H](Cc1ccccc1)NC(=O)c1nc([C@@H](C[C@H](C(C)C)N(C)C(=O)[C@@H](NC(=O)[C@H]2CCCN2C)C(C)C)OC(C)=O)sc1C	0.0326 µM	> 25 µM	> 25 µM	> 25 µM		> 25 µM	> 25 µM	> 25 µM	> 25 µM	> 25 µM	0.00275 µM	0.00618 µM	0.00837 µM		0.542 µM	< 0.0025 µM	0.00712 µM	< 0.0025 µM	0.0154 µM	< 0.0025 µM
CN1CCCNCCN(CCc2ccccn2)CCCN(C)CC1	> 62.8 µM	> 100 µM	> 66.1 µM	> 79.1 µM	> 100 µM	> 100 µM		> 100 µM	> 100 µM	> 100 µM										
CCC1CCC2CCCC(C)N12 (stereo not drawn)	> 100 µM	> 100 µM	> 100 µM		> 100 µM	> 100 µM		> 100 µM	> 100 µM	> 100 µM										
O=C1CCC(NC(=O)c2ccccc2)C(=O)N1 (stereo not drawn)	> 100 µM	> 100 µM		> 100 µM	> 100 µM	> 100 µM	> 100 µM	> 100 µM	> 100 µM	> 100 µM										
CNC(=O)c1cc(Oc2ccc3c(c2)sc2nc(-c4ccc(N)cc4)cn23)ccn1	27.2 µM	> 100 µM	> 100 µM	> 100 µM		> 100 µM	> 100 µM	> 100 µM	> 100 µM	> 100 µM	0.305 µM	0.346 µM	0.904 µM		2.49 µM	0.297 µM	0.791 µM	0.759 µM	0.467 µM	0.0911 µM
CCCNC(=O)OCc1c(COC(=O)NCCC)c(-c2ccc(Cl)c(Cl)c2)n2c1CCC2	13.2 µM	22.3 µM	26.6 µM	15.8 µM	9.72 µM		9.35 µM	19.4 µM	12.6 µM	21.5 µM										
NC1(CCCCCCCCCCC(=O)O)CNCCNCCNCCNC1	> 100 µM	91.6 µM	> 100 µM		> 100 µM	> 100 µM	> 100 µM	> 100 µM	> 100 µM	> 100 µM										
Clc1cccc(NC=Nc2ccc(-c3nc4ccccc4s3)cc2)c1	39.9 µM	> 50 µM	18.2 µM	17.5 µM				> 50 µM	33.6 µM	46.4 µM	12.2 µM	42.3 µM	9.46 µM				10.6 µM	20.4 µM	13.8 µM	7.81 µM
Cc1cccc2c3ccc4c(c3n(C)c12)C(=O)C=CC4=O	> 100 µM	> 100 µM	> 100 µM		> 100 µM	> 100 µM		> 100 µM	> 100 µM	> 100 µM										
CCCCn1/c(=N/C(=S)N(C)C)ss/c1=N\C(=S)N(C)C		> 100 µM	> 100 µM	> 100 µM	> 100 µM	> 100 µM	> 100 µM	> 100 µM	> 100 µM	> 100 µM										
COc1cc2c(cc1OC)C1C=NC(C(=O)O)(C2)c2ccccc21 (stereo not drawn)	> 100 µM	> 100 µM	> 100 µM	> 100 µM	> 100 µM	> 100 µM	> 100 µM	> 100 µM		> 100 µM										
O=C1c2ccccc2-c2c1c1cc3c(cc1c(=O)n2CCCCl)OCO3		28.6 µM	> 100 µM	> 100 µM		> 100 µM		77.6 µM	> 100 µM	> 100 µM		12.3 µM	39.7 µM		> 100 µM		51.7 µM	21.8 µM	> 100 µM	99.8 µM
O=C(O)/C=C/C(=O)Nc1ncn[nH]1	> 100 µM	> 100 µM		> 100 µM		> 100 µM	> 100 µM	> 100 µM	> 100 µM	> 100 µM										
O=[N+]([O-])c1ccc(NSc2ccccc2)cc1	> 100 µM	> 100 µM	> 100 µM	28 µM	> 100 µM		40.9 µM	35.5 µM	> 100 µM	> 100 µM										
OCc1c(-c2cccc3ccccc23)sc(-c2cccc3ccccc23)c1CO	24.9 µM	26.3 µM	31.3 µM	30.5 µM	24.5 µM			26.8 µM	23.7 µM	26.9 µM										
